Active and inactive are the calls of the source. No cut-off for these calls is given here. Positions of bridges follow the written chain, without caps; N, C: chain ends. Non-standard residues stand in square brackets, D forms with d. Residues, ends and D or L forms follow the SMILES beside them. Tyr(3-NO2) = N[C@@H](Cc1ccc(O)c([N+](=O)[O-])c1)C(=O)O; Phe(4-COOH) = N[C@@H](Cc1ccc(C(=O)O)cc1)C(=O)O; Phe(4-tBu) = CC(C)(C)c1ccc(C[C@H](N)C(=O)O)cc1; Tyr(3-I) = N[C@@H](Cc1ccc(O)c(I)c1)C(=O)O; Cha = N[C@@H](CC1CCCCC1)C(=O)O; NMeD = CN[C@@H](CC(=O)O)C(=O)O; pGlu = O=C1CC[C@@H](C(=O)O)N1; Pen = CC(C)(S)[C@H](N)C(=O)O Bounds are passed on as bounds.

The species named for experiment [1] is Rattus norvegicus. Briefly: Agonist activity in rat aortic ring contraction assay. Format: functional. The note with it: Aorta.
The target of experiment [2] is T1, Urotensin-2 receptor (Rattus norvegicus) (UniProt P49684).
T1 sequence (whole entry): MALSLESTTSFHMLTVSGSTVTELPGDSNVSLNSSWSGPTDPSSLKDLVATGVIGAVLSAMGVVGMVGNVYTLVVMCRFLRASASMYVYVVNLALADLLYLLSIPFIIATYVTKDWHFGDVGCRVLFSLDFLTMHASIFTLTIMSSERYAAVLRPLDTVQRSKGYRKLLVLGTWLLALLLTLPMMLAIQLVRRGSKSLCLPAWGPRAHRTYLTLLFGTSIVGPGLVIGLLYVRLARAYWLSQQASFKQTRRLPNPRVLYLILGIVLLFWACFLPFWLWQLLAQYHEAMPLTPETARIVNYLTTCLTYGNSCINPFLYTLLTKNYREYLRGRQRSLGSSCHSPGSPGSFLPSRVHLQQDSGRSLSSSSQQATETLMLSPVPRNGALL
Briefly: Antagonist activity against 0.1 uM human urotensin-2-induced contraction of rat aortic ring. Format: functional, tissue-based. Also noted: scale not given: the % may be the effect or the level left. The note with it: Aorta.

For experiment [3], the species on record is Rattus norvegicus. Briefly: Agonist activity in rat aortic ring contraction assay relative to 1 uM phenylephrine. It is filed as functional.
Experiment [4] deals with T2, Urotensin-2 receptor (Rattus norvegicus, UniProt P49684).
T2 sequence (P49684 whole entry): T1 sequence (whole entry)
As to the kind of experiment: Antagonist potency against human urotensin-2-induced contraction of rat aortic ring. The conditions noted are these: read-out: pA2 (converted). It is filed as functional, tissue-based, Aorta.

The target in experiment [5] is T3, Urotensin-2 receptor (Homo sapiens, UniProt Q9UKP6).
T3 sequence (Q9UKP6 whole entry): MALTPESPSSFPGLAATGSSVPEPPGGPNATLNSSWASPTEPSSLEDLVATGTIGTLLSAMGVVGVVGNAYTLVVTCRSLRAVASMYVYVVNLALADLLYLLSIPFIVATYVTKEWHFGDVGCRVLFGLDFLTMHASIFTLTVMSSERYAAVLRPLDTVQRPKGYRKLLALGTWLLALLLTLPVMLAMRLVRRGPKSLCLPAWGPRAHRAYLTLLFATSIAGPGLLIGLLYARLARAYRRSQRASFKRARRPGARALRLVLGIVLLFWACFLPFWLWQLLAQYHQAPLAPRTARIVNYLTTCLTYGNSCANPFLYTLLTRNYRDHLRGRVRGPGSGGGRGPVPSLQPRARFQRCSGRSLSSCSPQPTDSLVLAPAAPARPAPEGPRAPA
Briefly: Displacement of [125I]human urotensin-2 from human GPR14 transfected in CHO cells. Format: cell-based.

For experiment [6], the target named is T1, Urotensin-2 receptor (Rattus norvegicus). As to the kind of experiment: Antagonist activity against 1 uM human urotensin-2-induced contraction of rat aortic ring. Format: functional, tissue-based. The note with it: Aorta.
Experiment [7] is filed under the species Rattus norvegicus. As to the kind of experiment: Agonist activity in rat aortic ring contraction assay relative to 0.1 uM phenylephrine. It is filed as functional, Aorta.

Regarding `CC(C)[C@H](NC(=O)[C@@H]1CSSC[C@H](NC(=O)[C@@H](N)CC(=O)O)C(=O)N[C@@H](CC2CCCCC2)C(=O)N[C@@H](Cc2c[nH]c3ccccc23)C(=O)N[C@@H](CCCCN)C(=O)N[C@@H](Cc2ccc(O)cc2)C(=O)N1)C(=O)O`, in the experiment filed under Rattus norvegicus [1], the EC50 was over 10000 nM. For the same compound, the Activity in experiment [2] stood at 95.7%. Also, in the experiment filed under Rattus norvegicus [3] (Aorta), the result was inactive. The Kb on Urotensin-2 receptor [4] is 813 nM. Also, affinity on Urotensin-2 receptor [5] was put at a Ki of 407 nM.

In turn, `CC(C)[C@H](NC(=O)[C@@H]1CSSC[C@H](NC(=O)[C@@H](N)CC(=O)O)C(=O)N[C@@H](CC2CCCCC2)C(=O)N[C@@H](Cc2c[nH]c3ccccc23)C(=O)N[C@@H](CCCCN)C(=O)N[C@@H](Cc2ccc(O)c(I)c2)C(=O)N1)C(=O)O` (H-DC[Cha]WK[Tyr(3-I)]CV-OH; disulfide 2-7) gave an EC50 in the experiment filed under Rattus norvegicus [1] of 355 nM. Besides, the result in experiment [6] was inactive. In addition, the Activity in the experiment filed under Rattus norvegicus [3] was 82.1%. Also, the affinity at Urotensin-2 receptor [5], expressed as Ki, was 19.5 nM.

For `CC(C)[C@H](NC(=O)[C@@H]1CSSC[C@H](NC(=O)[C@H](C)N)C(=O)N[C@@H](CC2CCCCC2)C(=O)N[C@@H](Cc2c[nH]c3ccccc23)C(=O)N[C@@H](CCCCN)C(=O)N[C@@H](Cc2ccc(O)cc2)C(=O)N1)C(=O)O` (H-AC[Cha]WKYCV-OH; disulfide 2-7), the EC50 in the experiment filed under Rattus norvegicus [1] is 933 nM. Further, the outcome in experiment [6] was inactive. The Activity in the experiment filed under Rattus norvegicus [3] came out at 36.9%. On Urotensin-2 receptor [5], this compound showed a Ki of 263 nM.

The compound `CC(C)[C@H](NC(=O)[C@@H]1CSSC[C@H](NC(=O)[C@@H](N)CC(=O)O)C(=O)N[C@@H](Cc2ccccc2)C(=O)N[C@@H](Cc2c[nH]c3ccccc23)C(=O)N[C@@H](CCCCN)C(=O)N[C@@H](Cc2ccc(C(=O)O)cc2)C(=O)N1)C(=O)O` (H-DCFWK[Phe(4-COOH)]CV-OH; disulfide 2-7) gave an EC50 in the experiment listed under Rattus norvegicus [1] of 1700 nM. The outcome in experiment [6] was inactive. Moreover, the Activity in the experiment listed under Rattus norvegicus [3] was determined as 79.3%. The Ki on Urotensin-2 receptor [5] was 74.1 nM.

In the experiment filed under Rattus norvegicus [1], `CC(C)[C@H](NC(=O)[C@@H]1CSSC[C@H](NC(=O)[C@@H](N)CC(=O)O)C(=O)N[C@@H](Cc2ccccc2)C(=O)N[C@@H](Cc2c[nH]c3ccccc23)C(=O)N[C@@H](CCCCN)C(=O)N[C@@H](Cc2ccc(C(C)(C)C)cc2)C(=O)N1)C(=O)O` (H-DCFWK[Phe(4-tBu)]CV-OH; disulfide 2-7) gave an EC50 of 23.4 nM. Further, the outcome in experiment [6] was inactive. The compound also returned an Activity in the experiment filed under Rattus norvegicus [3] of 88.5%. The Ki on Urotensin-2 receptor [5] is 9.12 nM.

`CC(C)[C@H](NC(=O)[C@@H]1CSSC[C@H](NC(=O)[C@@H](N)CC(=O)O)C(=O)N[C@@H](Cc2ccccc2)C(=O)N[C@@H](Cc2c[nH]c3ccccc23)C(=O)N[C@@H](CCCCN)C(=O)N[C@@H](Cc2ccc(O)cc2)C(=O)N1)C(=O)O` (H-DCFWKYCV-OH; disulfide 2-7) gave an EC50 in the experiment listed under Rattus norvegicus [1] of 5.01 nM. Further, the result in experiment [6] was inactive. Also, the Activity in the experiment filed under Rattus norvegicus [3] was 102.1%. On Urotensin-2 receptor [5], this compound gave a Ki of 1.23 nM.

In turn, `CC(C)[C@H](NC(=O)[C@@H]1CSSC(C)(C)[C@H](NC(=O)[C@@H](N)CC(=O)O)C(=O)N[C@@H](CC2CCCCC2)C(=O)N[C@@H](Cc2c[nH]c3ccccc23)C(=O)N[C@@H](CCCCN)C(=O)N[C@@H](Cc2ccc(O)cc2)C(=O)N1)C(=O)O` (H-D[Pen][Cha]WKYCV-OH; disulfide 2-7) showed an EC50 in the experiment filed under Rattus norvegicus [1] of 1910 nM. Further, in experiment [6], the outcome was inactive. For the same compound, the Activity in the experiment listed under Rattus norvegicus [3] was determined as 14.8%. This compound also had a Ki on Urotensin-2 receptor [5] of 155 nM.

`CN[C@@H](CC(=O)O)C(=O)N[C@H]1CSSC[C@@H](C(=O)N[C@H](C(=O)O)C(C)C)NC(=O)[C@H](Cc2ccc(O)cc2)NC(=O)[C@H](CCCCN)NC(=O)[C@H](Cc2c[nH]c3ccccc23)NC(=O)[C@H](Cc2ccccc2)NC1=O` (H-[NMeD]CFWKYCV-OH; disulfide 2-7) showed an EC50 in the experiment filed under Rattus norvegicus [1] of 6.03 nM. Besides, the result in experiment [6] was inactive. Moreover, the Activity in the experiment listed under Rattus norvegicus [3] is 93.1%. The compound further had a Ki at Urotensin-2 receptor [5] of 1.62 nM.

In the experiment filed under Rattus norvegicus [1], `CC(C)[C@H](NC(=O)[C@@H]1CSSC[C@H](NC(=O)[C@@H]2CCC(=O)N2)C(=O)N[C@@H](Cc2ccccc2)C(=O)N[C@@H](Cc2c[nH]c3ccccc23)C(=O)N[C@@H](CCCCN)C(=O)N[C@@H](Cc2ccc(O)cc2)C(=O)N1)C(=O)O` ([pGlu]CFWKYCV-OH; disulfide 2-7) gave an EC50 of 5.89 nM. For the same compound, the result in experiment [6] was inactive. The Activity in the experiment filed under Rattus norvegicus [3] was determined as 98.6%. Moreover, affinity at Urotensin-2 receptor [5] was put at a Ki of 0.912 nM.

In the experiment filed under Rattus norvegicus [1], `CC(C)[C@H](NC(=O)[C@@H]1CSSC[C@H](NC(=O)[C@@H](N)CC(=O)O)C(=O)N[C@@H](Cc2ccccc2)C(=O)N[C@@H](Cc2c[nH]c3ccccc23)C(=O)N[C@@H](CCCCN)C(=O)N[C@@H](Cc2ccc(O)c([N+](=O)[O-])c2)C(=O)N1)C(=O)O` (H-DCFWK[Tyr(3-NO2)]CV-OH; disulfide 2-7) gave an EC50 of 9.77 nM. Besides, the outcome in experiment [6] was inactive. Further, in the experiment filed under Rattus norvegicus [3], the Activity was found to be 95%. Also, the Ki at Urotensin-2 receptor [5] was 2.4 nM.

On to `CC(C)C[C@@H]1NC(=O)[C@@H](NC(=O)[C@@H](N)CC(=O)O)CSSC[C@@H](C(=O)N[C@H](C(=O)O)C(C)C)NC(=O)[C@H](Cc2ccc(O)cc2)NC(=O)[C@H](CCCCN)NC(=O)[C@H](Cc2c[nH]c3ccccc23)NC1=O` (H-DCLWKYCV-OH; disulfide 2-7), for which the EC50 in the experiment filed under Rattus norvegicus [1] was over 10000 nM. Besides, the outcome in experiment [6] was inactive. Also, in the experiment listed under Rattus norvegicus [7], the Activity stood at 38.7%. At Urotensin-2 receptor [5], the affinity, expressed as Ki, was 132 nM.

For the compound `CC(C)[C@H](NC(=O)[C@@H]1CSSC[C@H](NC(=O)[C@@H](N)CCC(=O)O)C(=O)N[C@@H](Cc2ccccc2)C(=O)N[C@@H](Cc2c[nH]c3ccccc23)C(=O)N[C@@H](CCCCN)C(=O)N[C@@H](Cc2ccc(O)cc2)C(=O)N1)C(=O)O` (H-ECFWKYCV-OH; disulfide 2-7), the EC50 in the experiment listed under Rattus norvegicus [1] was 4.79 nM. In experiment [6], the result was inactive. Also, the Activity in the experiment filed under Rattus norvegicus [3] came out at 82.1%. The Ki on Urotensin-2 receptor [5] was 2.95 nM.

Values taken from ChEMBL document CHEMBL1137360, “Structure-activity relationships of a novel series of urotensin II analogues: identification of a urotensin II antagonist” (J Med Chem, 2006).
